Laboratory results reported in patent publication US12152049B2, “STING agonistic compound” (ONO PHARMACEUTICAL CO., LTD., priority 2018, dated 2024).
Counter-ions that a name gives are not always drawn.

Columns and labels:
THP1-Dual cells = assay: Effects on THP1-Dual cells: activation of the IRF pathway (Quanti-luc luminescence); type: cell-based; conditions: Homo sapiens, incubation about 24 hours
Protocol: THP1-Dual cells (Invivogen) were suspended in RPMI medium to prepare 2×10^6 cells/mL of cell suspension. 50 μL of the cell suspensions were dispensed into a 96-well plate, to which 50 μL of 6 to 20,000 nmol/L compound solutions were added. After adding the compound, the mixture was incubated at 37° C. for about 24 hours. After incubation, 10 μL of cell suspensions were collected from the respective wells, which were mixed with 50 μL of Quanti-luc (Invivogen). Then, the activation of the IRF (Interferon regulatory factor) pathway was measured by detecting luminescence using a microplate reader (Molecular Devices).

THP1-Dual-STING KO cells = assay: Activity on THP1-Dual-STING KO cells: IRF pathway (Quanti-luc luminescence); type: cell-based; conditions: STING gene homozygous deficient THP1-Dual cells, 6 to 20,000 nM compound solutions, about 24 hours
Protocol: STING gene homozygous deficient THP1-Dual cells (THP1-Dual-STING KO cells (Invivogen) were suspended in RPMI medium to prepare 2×10^6 cells/mL cell suspension. 50 μL of cell suspensions were dispensed into a 96-well plate, to which 50 μL of 6 to 20,000 nM compound solutions were further added, followed by incubation at 37° C. for about 24 hours. 10 μL of the cell suspensions were collected from the respective wells, which were mixed with 50 μL of Quanti-luc (Invivogen), and then the activity of the IRF pathway was measured by detecting luminescence using a microplate reader.

IDO1 = target: T1, IDO1 (Homo sapiens, UniProt P14902); assay: Evaluation of IDO1 inhibitory activity (IDO1 Fluorogenic Inhibitor Screening Assay Kit); type: biochemical; conditions: compound solutions of 0.6, 2, 6, 20, 60 and 200 μmol/L added
T1 construct: His-tag; purchased BPS Bioscience
Protocol: The evaluation of IDO1 inhibitory activity was carried out using the IDO1 Fluorogenic Inhibitor Screening Assay Kit (BPS Bioscience). Specifically, IDO1 Fluorogenic Reaction Solution was dissolved, of which 180 μL were added to each well. Then, 10 μL of compounds at the respective concentrations of 0.6, 2, 6, 20, 60 and 200 μmol/L were added thereto. Further, after adding 10 μL of IDO1 His-Tag solution thereto, of which the mixtures were incubated at room temperature for 1 hour, and then 20 μL of Fluorescence Solution was added thereto, of which the mixtures were incubated at 37° C. for 4 hours. After standing them at room temperature for 10 minutes, the fluorescence was measured using a microplate reader (excitation: 400 nm, emission: 510 nm).

[1] = system: BTK, KDR, each subtype of PKCα to ι, each CDK of CDK2 to 9, FAK, TIE2, RAF1 and BRAF; assay: Evaluation of inhibitory activity against various kinases (mobility shift, LabChip); type: biochemical; conditions: 4 μmol/L test substance solution (4 times the final concentration)
Protocol: 4 μmol/L of test substance solution (the compound of the present invention shown in Example 1) (at 4 times the final concentration) was prepared by dissolving it to the assay buffer (20 mmol/L HEPES, 0.01% Triton X-100, 1 mmol/L DTT, pH 7.5). 4 μmol/L of substrate/ATP/metal solution (at 4 times the final concentration) was prepared by dissolving them to the kit buffer (20 mmol/L HEPES, 0.01% Triton X-100, 5 mmol/L DTT, pH 7.5).
Various kinase solutions at twice the final concentration were prepared by dissolving them to the assay buffer. 5 μL of the test substance solution, 5 μL of the substrate/ATP/metal solution and 10 μL of the kinase solution were mixed in wells of a polypropylene 384-well plate, of which the mixture was reacted at room temperature for 1 to 5 hours. The reaction was stopped by adding 70 μL of the termination buffer (QuickScout Screening Assist MSA; Cama Biosciences). The substrate peptide and phosphorylated peptide in the reaction solution were separated and quantified by LabChip system (Perkin Elmer). The kinase reaction was evaluated by the product ratio (P/(P+S)) calculated from the peak height (S) of the substrate peptide and the peak height (P) of the phosphorylated peptide. The various kinases used for evaluation are as follows:
BTK, KDR, each subtype of PKCα to ι, each CDK of CDK2 to 9, FAK, TIE2, RAF1 and BRAF.

[2] = system: mouse colon cancer cell line MC38; assay: Anti-tumor effect in tumor model bearing subcutaneous mouse colon cancer cell line MC38; type: in vivo, mice (C57/BL6); conditions: 3 mg/kg, administered 7 days after MC38 transplantation, measured until Day 26
Protocol: Colon cancer cell line MC38 derived from C57/BL6 mice were subcutaneously transplanted to right flank of syngeneic mice (C57/BL6, female, 6 weeks old (Charles River Japan)) (herein, the day of transplantation was Day 0) to prepare tumor mice bearing subcutaneous MC38. Seven days after transplantation, tumor mice bearing subcutaneous MC38 were grouped based on tumor volume, and used as the Vehicle group (n=8) and the compound administration group (3 mg/kg, n=6) shown in Example 1. The changes in tumor volume were continuously measured until the 26 days after transplantation (Day 26). The tumor volume was calculated by the following formula: [Tumor volume (mm^3)]=[major axis (mm)]×[minor axis (mm)]^2×0.5
Colon cancer cell line MC38 derived from C57/BL6 mice were subcutaneously transplanted to right flank of syngeneic mice (C57/BL6, female, 6 weeks old (Charles River Japan)) (herein, the day of transplantation was Day 0) to prepare tumor mice bearing subcutaneous MC38. They were grouped based on tumor volume 7 or 8 days after transplantation, to which the Vehicle (n=8 or 6) and the respective compounds of Examples 10 and 10(1) to 10(6) (1, 1, 1, 10, 3, 1 and 1 mg/kg, n=8 or 6) were administered. The changes in tumor volume were measured serially until the 28 or 30 days after transplantation (Day 28 or 30). The tumor volume was calculated from the formula shown in Example 16.

T1 sequence (P14902 whole entry): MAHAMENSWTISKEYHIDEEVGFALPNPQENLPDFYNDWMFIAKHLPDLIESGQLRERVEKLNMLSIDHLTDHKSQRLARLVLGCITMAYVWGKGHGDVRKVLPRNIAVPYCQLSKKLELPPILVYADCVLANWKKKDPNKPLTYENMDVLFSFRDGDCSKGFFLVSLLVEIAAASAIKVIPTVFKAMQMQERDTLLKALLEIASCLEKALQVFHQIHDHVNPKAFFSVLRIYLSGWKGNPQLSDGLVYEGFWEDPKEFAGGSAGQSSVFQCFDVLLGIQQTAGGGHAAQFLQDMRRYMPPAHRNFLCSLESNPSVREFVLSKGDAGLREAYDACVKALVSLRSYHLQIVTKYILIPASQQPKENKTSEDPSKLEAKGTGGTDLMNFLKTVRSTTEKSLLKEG

For `COC(=O)c1cc(-c2ncc(-c3cn[nH]c3)c3onc(N)c23)c(F)cc1N` [Example 1, methyl 2-amino-5-(3-amino-7-(1H-pyrazol-4-yl)isoxazolo[4,5-c]pyridin-4-yl)-4-fluorobenzoate], the EC50 (THP1-Dual cells) was 180 nM, the IRF activating effect (THP1-Dual-STING KO cells) was “no IRF activating effect” and the IDO1 inhibitory activity (IDO1) was “did not show any IDO1 inhibitory activity”. For the same compound, the “inhibitory activity against the evaluated kinases” value [1] was “did not showed any significantly inhibit activities” and the “tumor growth (tumor volume)” value [2] was “almost completely suppressed the tumor growth”.
For `COc1cc(-c2ncc(-c3cn[nH]c3)c3onc(N)c23)c(F)cc1N` [Example 2, 4-(4-amino-2-fluoro-5-methoxyphenyl)-7-(1H-pyrazol-4-yl)isoxazolo[4,5-c]pyridin-3-amine hydrochloride], the EC50 (THP1-Dual cells) was 1930 nM.
`CC(=O)c1cc(-c2ncc(-c3cn[nH]c3)c3onc(N)c23)c(F)cc1N` [Example 3, 1-(2-amino-5-(3-amino-7-(1H-pyrazol-4-yl)isoxazolo[4,5-c]pyridin-4-yl)-4-fluorophenyl)ethan-1-one] was tested, and the EC50 (THP1-Dual cells) was 40 nM.
For `CS(=O)(=O)c1cc(-c2ncc(-c3cn[nH]c3)c3onc(N)c23)c(F)cc1N` [Example 4(3), 4-(4-amino-2-fluoro-5-(methylsulfonyl)phenyl)-7-(1H-pyrazol-4-yl)isoxazolo[4,5-c]pyridin-3-amine hydrochloride], the EC50 (THP1-Dual cells) was 950 nM.
`NC(=O)c1cc(-c2ncc(-c3cn[nH]c3)c3onc(N)c23)c(F)cc1N` [Example 4(5), 2-amino-5-(3-amino-7-(1H-pyrazol-4-yl)isoxazolo[4,5-c]pyridin-4-yl)-4-fluorobenzamide hydrochloride] was tested, and the EC50 (THP1-Dual cells) was 80 nM.
Compound `CCOC(=O)c1cc(-c2ncc(-c3cn[nH]c3)c3onc(N)c23)c(F)cc1N` [Example 4(6), ethyl 2-amino-5-(3-amino-7-(1H-pyrazol-4-yl)isoxazolo[4,5-c]pyridin-4-yl)-4-fluorobenzoate hydrochloride] has an EC50 (THP1-Dual cells) of 40 nM.
`CCC(=O)c1cc(-c2ncc(-c3cn[nH]c3)c3onc(N)c23)c(F)cc1N` [Example 4(7), 1-(2-amino-5-(3-amino-7-(1H-pyrazol-4-yl)isoxazolo[4,5-c]pyridin-4-yl)-4-fluorophenyl)propan-1-one hydrochloride] showed an EC50 (THP1-Dual cells) of 20 nM.
`CCNC(=O)c1cc(-c2ncc(-c3cn[nH]c3)c3onc(N)c23)c(F)cc1N` [Example 4(8), 2-amino-5-(3-amino-7-(1H-pyrazol-4-yl)isoxazolo[4,5-c]pyridin-4-yl)-N-ethyl-4-fluorobenzamide hydrochloride] showed an EC50 (THP1-Dual cells) of 20 nM.
Compound `CC(=O)c1cc(-c2ncc(-c3cn[nH]c3)c3onc(N)c23)ccc1N` [Example 4(9), 1-(2-amino-5-(3-amino-7-(1H-pyrazol-4-yl)isoxazolo[4,5-c]pyridin-4-yl)phenyl)ethan-1-one hydrochloride] has an EC50 (THP1-Dual cells) of 130 nM.
With `CNC(=O)c1cc(-c2ncc(-c3cn[nH]c3)c3onc(N)c23)ccc1N` [Example 4(15), 2-amino-5-(3-amino-7-(1H-pyrazol-4-yl)isoxazolo[4,5-c]pyridin-4-yl)-N-methylbenzamide hydrochloride] the EC50 (THP1-Dual cells) was 100 nM.
Work on `CSc1cc(-c2ncc(-c3cn[nH]c3)c3onc(N)c23)c(Cl)cc1N` [Example 4(16), 4-(4-amino-2-chloro-5-(methylthio)phenyl)-7-(1H-pyrazol-4-yl)isoxazolo[4,5-c]pyridin-3-amine hydrochloride] yielded an EC50 (THP1-Dual cells) of 1000 nM.
In the case of `CSc1cc(-c2ncc(-c3cn[nH]c3)c3onc(N)c23)c(F)cc1N` [Example 4, 4-(4-amino-2-fluoro-5-(methylthio)phenyl)-7-(1H-pyrazol-4-yl)isoxazolo[4,5-c]pyridin-3-amine hydrochloride], the EC50 (THP1-Dual cells) is reported as 90 nM.
